Experimental findings from patent US12421253B2 (Mirati Therapeutics, Inc., priority 2020, dated 2025) are described below.

In one test the target is T1, KRas^G12V (Homo sapiens, UniProt P01116, G12V).
T1 construct: […]; biotin (biotinylated); purchased Accelegan Inc
Put plainly: KRas binding assay (TR-FRET displacement of Cy5 labelled tracer). Background: TR-FRET usually uses a lanthanide donor and a delayed reading to cut background.

A further test concerns the target T2, KRas^G12A (Homo sapiens, UniProt P01116, G12A).
T2 construct: […]; biotin (biotinylated); purchased Accelegan Inc
Described as above.

A further test has as its target KRas^Q61H (Homo sapiens, UniProt P01116, Q61H). The experiment in a line: biochemical.
The next test deals with T3, KRas^G12R (Homo sapiens, UniProt P01116, G12R).
T3 construct: […]; biotin (biotinylated); purchased Accelegan Inc
Put plainly: KRas binding assay (TR-FRET displacement of Cy5 labelled tracer).

A further test addresses T4, KRas^G12S (Homo sapiens, UniProt P01116, G12S).
T4 construct: […]; biotin (biotinylated); purchased Accelegan Inc
The description is as above.

For another test, the target named is KRas^G12C (Homo sapiens, UniProt P01116, G12C). Put plainly: biochemical.
The target in another test is T5, KRas^WT (Homo sapiens, UniProt P01116).
T5 construct: […]; biotin (biotinylated); purchased Accelegan Inc
The experiment in a line: KRas binding assay (TR-FRET displacement of Cy5 labelled tracer).

The target of a further test is KRas^G13D (Homo sapiens, UniProt P01116, G13D). The experiment in a line: biochemical.
The target in another test is T6, KRas^G12D (Homo sapiens, UniProt P01116, G12D).
T6 construct: […]; biotin (biotinylated); purchased Accelegan Inc
Put plainly: KRas binding assay (TR-FRET displacement of Cy5 labelled tracer).

pIC50: −log10 of the molar value.

T2 sequence (P01116 1-169 isoform P01116-2 G12A): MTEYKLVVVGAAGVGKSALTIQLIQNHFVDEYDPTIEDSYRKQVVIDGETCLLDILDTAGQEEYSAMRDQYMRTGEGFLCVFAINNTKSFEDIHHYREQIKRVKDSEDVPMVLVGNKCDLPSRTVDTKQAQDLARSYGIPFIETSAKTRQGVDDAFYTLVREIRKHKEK
T5 sequence (P01116 1-169 isoform P01116-2): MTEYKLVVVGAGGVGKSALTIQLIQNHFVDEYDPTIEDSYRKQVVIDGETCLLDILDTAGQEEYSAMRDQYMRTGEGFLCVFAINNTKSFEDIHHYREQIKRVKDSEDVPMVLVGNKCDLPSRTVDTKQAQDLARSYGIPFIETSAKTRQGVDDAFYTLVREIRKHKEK
T3 sequence (P01116 1-169 isoform P01116-2 G12R): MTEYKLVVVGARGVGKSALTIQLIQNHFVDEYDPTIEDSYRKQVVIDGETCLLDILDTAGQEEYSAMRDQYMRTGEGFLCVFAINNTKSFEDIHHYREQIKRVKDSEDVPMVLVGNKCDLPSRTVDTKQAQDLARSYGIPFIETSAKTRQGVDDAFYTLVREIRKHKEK
T1 sequence (P01116 1-169 isoform P01116-2 G12V): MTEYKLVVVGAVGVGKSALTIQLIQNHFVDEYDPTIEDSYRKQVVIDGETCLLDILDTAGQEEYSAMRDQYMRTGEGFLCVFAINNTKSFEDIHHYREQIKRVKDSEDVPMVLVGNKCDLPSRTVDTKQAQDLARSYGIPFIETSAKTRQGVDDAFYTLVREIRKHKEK
T4 sequence (P01116 1-169 isoform P01116-2 G12S): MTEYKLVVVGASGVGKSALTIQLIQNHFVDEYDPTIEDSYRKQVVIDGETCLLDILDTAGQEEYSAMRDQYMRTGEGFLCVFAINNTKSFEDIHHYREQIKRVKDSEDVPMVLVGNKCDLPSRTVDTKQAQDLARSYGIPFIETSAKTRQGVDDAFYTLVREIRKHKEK
KRas^Q61H, sequence (P01116 1-169 isoform P01116-2 Q61H): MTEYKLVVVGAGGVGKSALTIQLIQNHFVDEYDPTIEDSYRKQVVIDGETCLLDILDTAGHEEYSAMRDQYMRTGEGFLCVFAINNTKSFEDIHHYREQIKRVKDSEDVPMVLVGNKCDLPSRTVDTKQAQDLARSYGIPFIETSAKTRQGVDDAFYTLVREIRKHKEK
KRas^G12C, sequence (P01116 1-169 isoform P01116-2 G12C): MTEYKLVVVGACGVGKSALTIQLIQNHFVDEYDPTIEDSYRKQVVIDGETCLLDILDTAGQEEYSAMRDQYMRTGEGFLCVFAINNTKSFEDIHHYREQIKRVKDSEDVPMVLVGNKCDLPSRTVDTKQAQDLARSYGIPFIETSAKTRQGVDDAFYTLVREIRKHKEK
T6 sequence (P01116 1-169 isoform P01116-2 G12D): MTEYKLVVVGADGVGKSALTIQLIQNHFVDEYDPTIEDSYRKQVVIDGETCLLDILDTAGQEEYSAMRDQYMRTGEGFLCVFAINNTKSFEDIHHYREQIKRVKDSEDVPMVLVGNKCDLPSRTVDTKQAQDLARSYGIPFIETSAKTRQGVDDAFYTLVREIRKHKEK
KRas^G13D, sequence (P01116 1-169 isoform P01116-2 G13D): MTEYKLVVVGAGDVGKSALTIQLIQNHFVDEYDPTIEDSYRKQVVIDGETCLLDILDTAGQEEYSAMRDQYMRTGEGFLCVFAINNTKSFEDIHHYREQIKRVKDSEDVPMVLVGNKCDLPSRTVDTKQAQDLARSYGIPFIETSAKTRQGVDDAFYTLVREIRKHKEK
Protocol for KRas^G12A: (§1) The ability of a compound to bind to KRas was measured using a TR-FRET displacement assay. […] After a 60-minute incubation at room temperature, the reaction was measured using a BMG LABTECH CLARIO star Plus via TR-FRET. […] The POC values were fit to a 4-parameter IC50 equation and the IC50 value reported.
Protocol for KRas^G12C: as §1
Protocol for KRas^G12D: as §1
Protocol for KRas^G12R: as §1
Protocol for KRas^G12S: as §1
Protocol for KRas^G12V: as §1
Protocol for KRas^G13D: as §1
Protocol for KRas^Q61H: as §1
Protocol for KRas^WT: as §1

As for `CCc1cccc2cccc(N3CCc4c(nc(OCC56CCCN5CCC6)nc4N4CCCC(NC(=O)N(C)C)C4)C3)c12` (stereo not drawn) [Example 91, 3-(1-(7-(8-ethylnaphthalen-1-yl)-2-((tetrahydro-1H-pyrrolizin-7a(5H)-yl)methoxy)-5,6,7,8-tetrahydropyrido[3,4-d]pyrimidin-4-yl)piperidin-3-yl)-1,1-dimethylurea], the pIC50 on KRas^G12V is 6.36; on KRas^G12A, 6.53; against KRas^Q61H, 6.02; at KRas^G12R, 6.64; at KRas^G12S, 6.34; against KRas^G12C it was 6.42. For the same compound, the pIC50 at KRas^WT is 6.12; at KRas^G13D, 6.04; on KRas^G12D it was 5.98.

On to `CCc1cccc2cccc(N3CCc4c(nc(OCC56CCCN5CCC6)nc4N4CCC(O)CC(C)C4)C3)c12` (stereo not drawn) [Example 92, 1-(7-(8-ethylnaphthalen-1-yl)-2-((tetrahydro-1H-pyrrolizin-7a(5H)-yl)methoxy)-5,6,7,8-tetrahydropyrido[3,4-d]pyrimidin-4-yl)-6-methylazepan-4-ol], for which the pIC50 at KRas^G12V is 6.53; at KRas^G12A it was 6.52; against KRas^Q61H, 6.49; on KRas^G12R, 6.55; on KRas^G12S it was 6.47; on KRas^G12C it was 6.46. Moreover, the results for the pIC50 on KRas^WT, at KRas^G13D and at KRas^G12D were 6.63, 6.61 and 6.27, respectively.

As to `CCc1cccc2cccc(N3CCc4c(nc(OCC56CCCN5CCC6)nc4N4CCCC(c5n[nH]c(C)n5)C4)C3)c12` (stereo not drawn) [Example 93, 7-(8-ethylnaphthalen-1-yl)-4-(3-(5-methyl-1H-1,2,4-triazol-3-yl)piperidin-1-yl)-2-((tetrahydro-1H-pyrrolizin-7a(5H)-yl)methoxy)-5,6,7,8-tetrahydropyrido[3,4-d]pyrimidine], the pIC50 at KRas^G12V was 6.15; at KRas^G12A, 6.37; against KRas^Q61H, 5.91; on KRas^G12R it was 6.63; on KRas^G12S it was 6.16; against KRas^G12C it was 6.59. Moreover, the values for the negative logarithm of the IC50 (pIC50) at KRas^WT, at KRas^G13D and on KRas^G12D were 6.17, 5.96 and 5.58, respectively.

For the compound `CCc1cccc2cccc(N3CCc4c(nc(OCC56CCCN5CCC6)nc4N4CCCC(n5ccc(C)n5)C4)C3)c12` (stereo not drawn) [Example 94, 7-(8-ethylnaphthalen-1-yl)-4-(3-(3-methyl-1H-pyrazol-1-yl)piperidin-1-yl)-2-((tetrahydro-1H-pyrrolizin-7a(5H)-yl)methoxy)-5,6,7,8-tetrahydropyrido[3,4-d]pyrimidine], the pIC50 is 5.89 at KRas^G12V; 6.10 at KRas^G12A; 6.12 against KRas^Q61H; 6.61 on KRas^G12R; 6.05 at KRas^G12S; 6.28 on KRas^G12C. Besides, the negative logarithm of the IC50 (pIC50) at KRas^WT was 6.07; on KRas^G13D, 6.16; on KRas^G12D, 5.67.

With `CCc1cccc2cccc(N3CCc4c(nc(OCC56CCCN5CCC6)nc4N4CCCN(C(N)=O)CC4)C3)c12` [Example 95, 4-(7-(8-ethylnaphthalen-1-yl)-2-((tetrahydro-1H-pyrrolizin-7a(5H)-yl)methoxy)-5,6,7,8-tetrahydropyrido[3,4-d]pyrimidin-4-yl)-1,4-diazepane-1-carboxamide], the negative-log IC50 (pIC50) was 6.00 on KRas^G12V; 6.18 on KRas^G12A; 6.46 against KRas^Q61H; 6.14 on KRas^G12R; 6.02 on KRas^G12S; 6.18 on KRas^G12C. Further, the pIC50 at KRas^WT was 6.59; on KRas^G13D, 6.60; on KRas^G12D, 5.33.

As for `CCc1cccc2cccc(N3CCc4c(nc(OCC56CCCN5CCC6)nc4N4C[C@@H](C)C[C@H](O)C4)C3)c12` [Example 97, (3S,5S)-1-(7-(8-ethylnaphthalen-1-yl)-2-((tetrahydro-1H-pyrrolizin-7a(5H)-yl)methoxy)-5,6,7,8-tetrahydropyrido[3,4-d]pyrimidin-4-yl)-5-methylpiperidin-3-ol], the pIC50 at KRas^G12V is 6.25; on KRas^G12A it was 6.32; against KRas^Q61H, 6.40; at KRas^G12R, 6.30; on KRas^G12S, 6.28; at KRas^G12C, 6.25. In addition, the pIC50 at KRas^WT is 6.49; against KRas^G13D it was 6.47; on KRas^G12D it was 5.94.

For `CCc1cccc2cccc(N3CCc4c(nc(OCC56CCCN5CCC6)nc4N(C)CC4(O)CC4)C3)c12` [Example 98, 1-(((7-(8-ethylnaphthalen-1-yl)-2-((tetrahydro-1H-pyrrolizin-7a(5H)-yl)methoxy)-5,6,7,8-tetrahydropyrido[3,4-d]pyrimidin-4-yl)(methyl)amino)methyl)cyclopropan-1-ol], the pIC50 is 6.47 on KRas^G12V; 6.34 on KRas^G12A; 6.27 on KRas^Q61H; 6.29 on KRas^G12R; 6.32 at KRas^G12S; 6.48 against KRas^G12C. The negative logarithm of the IC50 (pIC50) at KRas^WT was 6.35; against KRas^G13D, 6.20; at KRas^G12D it was 5.97.

For `CCc1cccc2cccc(N3CCc4c(nc(OCC56CCCN5CCC6)nc4N4CCCC(c5ccno5)C4)C3)c12` (stereo not drawn) [Example 99, 5-(1-(7-(8-ethylnaphthalen-1-yl)-2-((tetrahydro-1H-pyrrolizin-7a(5H)-yl)methoxy)-5,6,7,8-tetrahydropyrido[3,4-d]pyrimidin-4-yl)piperidin-3-yl)isoxazole], the pIC50 on KRas^G12V was 6.02; at KRas^G12A, 5.90; on KRas^Q61H, 5.95; at KRas^G12R, 6.47; at KRas^G12S, 5.90; at KRas^G12C it was 6.00. The pIC50 is 5.91 at KRas^WT, 5.81 against KRas^G13D and 5.52 at KRas^G12D.

On to `CCc1cccc2cccc(N3CCc4c(nc(OCC56CCCN5CCC6)nc4N4CCCC(c5ccn(C)n5)C4)C3)c12` (stereo not drawn) [Example 100, 7-(8-ethylnaphthalen-1-yl)-4-(3-(1-methyl-1H-pyrazol-3-yl)piperidin-1-yl)-2-((tetrahydro-1H-pyrrolizin-7a(5H)-yl)methoxy)-5,6,7,8-tetrahydropyrido[3,4-d]pyrimidine], for which the pIC50 is 5.69 at KRas^G12V; 6.00 on KRas^G12A; 5.85 against KRas^Q61H; 6.47 at KRas^G12R; 5.85 on KRas^G12S; 6.08 against KRas^G12C. Besides, the pIC50 at KRas^WT is 5.94; against KRas^G13D, 5.86; at KRas^G12D, 5.35.

For `CCc1cccc2cccc(N3CCc4c(nc(OCC56CCCN5CCC6)nc4N4CC(O)C(O)C(O)C4)C3)c12` (stereo not drawn) [Example 101, 1-(7-(8-ethylnaphthalen-1-yl)-2-((tetrahydro-1H-pyrrolizin-7a(5H)-yl)methoxy)-5,6,7,8-tetrahydropyrido[3,4-d]pyrimidin-4-yl)piperidine-3,4,5-triol], the pIC50 at KRas^G12V is 6.26; at KRas^G12A, 6.31; against KRas^Q61H, 6.13; at KRas^G12R it was 6.40; on KRas^G12S it was 6.42; at KRas^G12C, 6.45. For the same compound, the negative-log IC50 (pIC50) on KRas^WT was 6.29; against KRas^G13D it was 6.17; on KRas^G12D, 5.92.

One may read the pIC50 as the IC50 on a negative log10 scale, so that one unit is a factor of ten. A lower pIC50 goes with a large IC50.
